Key:
Assay type in all cases: cell-based, human
[1] = tested on: Hs 578T cells; test: 6-day cell proliferation assay, Hs 578T; conditions: proliferation over 6 days
Description: (§1) Human breast cancer cell lines MCF7, BT-474, T-47D, MDA-MB-453, MDA-MB-231, Hs 578T, HCC38, SK-BR-3, and DU4475 were purchased from the American Type Culture Collection (ATCC) and no additional cell authentication was performed. The TSE human breast cancer cell line was supplied by Dr. Steven Abcouwer (University of Michigan). All breast cancer cells were cultured at 37° C. under a 5% CO2 atmosphere in RPMI 1640 medium containing 2 mM glutamine (Gibco) and supplemented with 10% fetal bovine serum (FBS) (Gibco). The 293T cell line (ATCC) used for generating lentivirus particles was cultured as above but using DMEM, high glucose (Gibco).
(§2) Culture medium was added to 12-well plates (1 ml/well) and wells were seeded with cells at Day 0 as follows. MCF7, T-47D, BT-474, HCC38 cells: […] cells/well. MDA-MB-453 and MDA-MB-231 cells: 1×10^4 cells/well. TSE and Hs 578T cells: 0.3×10^4 cells/well. After 16 hours, culture medium was replaced with fresh medium supplemented with appropriate concentrations of inhibitors and was subsequently replaced every 48 hours. On Day 6 cells were trypsinized and suspended in an appropriate volume of culture medium, and the total number of cells per well was determined using a hemocytometer or a TC20 Automated Cell Counter (Bio-Rad).

[2] = tested on: T-47D cells; test: 6-day cell proliferation assay, T-47D; conditions: proliferation over 6 days
Description: as §1, §2

[3] = tested on: TSE cells carrying the plasmid vector only; test: 6-day cell proliferation assay, TSE vector only; conditions: 6 days
Description: as §2
(§3) Vectors for expressing human GAC or GLS2 in breast cancer cell lines were based on pCDNA3.1/V5-His TOPO (Thermo Fisher Scientific), with the appropriate gene sub-cloned in and the tag switched to HA-tag or myc-tag for immunofluorescence experiments. Vectors pQE80-GAC-72-598 and pQE80-GLS2-38-602, for expressing the processed forms of human GAC (residues 72 to 598) or GLS2 (residues 38 to 602) in E. coli, were described in Huang et al., “Characterization of the Interactions of Potent Allosteric Inhibitors with Glutaminase C, a Key Enzyme in Cancer Cell Glutamine Metabolism,” J. Biol. Chem. 293:3535-3545 (2018), which is hereby incorporated by reference in its entirety.
For 60 mm dish format. […]

[4] = tested on: TSE cells stably expressing GLS2; test: 6-day cell proliferation assay, TSE stably expressing GLS2
Description: as §2, §3
For 60 mm dish format. 0.2 ml Opti-MEM (Gibco) containing […] of the appropriate DNA construct, along with 0.2 ml Opti-MEM containing 12 μl Lipofectamine 2000 (Invitrogen), were separately incubated at room temperature for 5 min. The two solutions were combined and incubated for an additional 20 min, mixed with 1.6 ml culture medium and added to cells. After 5 hours incubation at 37° C. the transfection mixture was replaced with fresh culture medium, and cells were then incubated for an additional 48 hours to allow for ectopic expression of GLS or GLS2. To select for cells stably expressing the DNA construct, culture medium supplemented with 500 μg/ml G-418 disulfate (Research Products International) was added and replaced every 2 days for 2-3 weeks until isolated colonies ˜2 mm in diameter were present. Individual colonies were transferred to a 12-well plate (1 colony per well) using sterile blotting paper soaked in trypsin solution and were then cultured in medium supplemented with 250 μg/ml G-418 disulfate. All colonies were screened by western blot for ectopic expression, and positive clones were maintained in medium supplemented with 250 μg/ml G-418 disulfate.

Structure (SMILES) | EC50 [1] [µM] | EC50 [2] [µM] | EC50 [3] [µM] | EC50 ([4]; TSE GLS2 clone 1, 6 days) [µM] | EC50 ([4]; TSE GLS2 clone 2, 6 days) [µM] | EC50 ([4]; TSE with ectopic expression of GLS2, 6 days) [µM]
O=C(Cc1ccccc1)Nc1nnc(CCSCCc2nnc(NC(=O)Cc3ccccc3)s2)s1 [BPTES] | 3.7 | ~20 | 4 | > 20 | > 20 | > 20
CN(C)c1ccc(C2Nc3ccc4ccccc4c3C3=C2C(=O)CC(C)(C)C3)cc1Br (centres unmarked) [Compound 968] | 4 | 4 | 2 | 7 | 6 | –

Source: patent publication US20250275964A1, “METHODS OF INHIBITING LIVER-TYPE GLUTAMINASE, GLS2” (CORNELL UNIVERSITY, priority 2019, published 2025)
